In general, inhibition refers to how much of the control response was suppressed. As a reminder, the melting point is the temperature, or range, at which the solid turns liquid.

Data set [1] concerns Prenophora Teres (Helminthosporium Teres). The data set can be described thus: Pyrenophora teres / barley / preventive (net blotch). The data set is classed as in vivo. To be noted: 96 h, spray, barley plants cv. Regina, assessed 4 days after inoculation, read-out: inhibition of fungal infestation. The method, then: Prenophora Teres (Helminthosporium Teres)/Barley/Preventive (Action Against Net Blotch on Barley) 1-week-old barley plants cv. Regina are treated with the formulated test compound in a spray chamber. Two days after application barley plants are inoculated by spraying a spore suspension (2.6×10^4 conidia/ml) on the test plants. After an incubation period of 4 days at 20° C. and 95% r. h. the disease incidence is assessed.

The next data set concerns Puccinia Recondita. The data set can be described thus: Puccinia recondita / wheat / preventive (brown rust). The data set is classed as in vivo. Particulars: 264 h, spray, wheat plants cv. Arina, assessed 11 days after inoculation, read-out: inhibition of fungal infestation. The method, then: Puccinia Recondita/Wheat/Preventive (Action Against Brown Rust on Wheat) 1 week old wheat plants cv. Arina are treated with the formulated test compound in a spray chamber. One day after application wheat plants are inoculated by spraying a spore suspension ([…] uredospores/ml) on the test plants. After an incubation period of 1 day at 20° C. and 95% r. h. plants are kept for 10 days 20° C./18° C. (day/night) and 60% r.h. in a greenhouse. The disease incidence is assessed 11 days after inoculation.

Another data set concerns Alternaria Solani. The data set can be described thus: Alternaria solani / tomato / preventive. The data set is classed as in vivo. Particulars: 96 h, spray, tomato plants cv. Roter Gnom, assessed 4 days after inoculation, read-out: inhibition of fungal infestation. The method, then: Alternaria Solani/Tomato/Preventive (Action Against Alternaria on Tomato) 4 weeks old tomato plants cv. Roter Gnom are treated with the formulated test compound in a spray chamber. Two days after application tomato plants are inoculated by spraying a spore suspension on the test plants. After an incubation period of 4 days at 22° C./18° C. and 95% r. h. in a greenhouse the disease incidence is assessed.

Data set [2] has as its system Magnaporthe Grisea (Pyricularia oryzae). The data set can be described thus: whole plant or invertebrate. To be noted: 144 h, read-out: inhibition of fungal infestation. In kind it is in vivo.
A further data set has as its system Botrytis Cinerea. As to the kind of experiment: Botrytis cinerea / tomato / preventive. To be noted: 72 h, spray, tomato plants cv. Roter Gnom, assessed 3 days after inoculation, read-out: inhibition of fungal infestation. In kind it is in vivo. Here is the method:
Botrytis Cinerea/Tomato/Preventive (Action Against Botrytis on Tomato) 4 weeks old tomato plants cv. Roter Gnom are treated with the formulated test compound in a spray chamber. Two days after application tomato plants are inoculated by spraying a spore suspension on the test plants. After an incubation period of 3 days at 20° C. and 95% r. h. in a greenhouse the disease incidence is assessed.

Another data set has as its system Septoria Tritici. The data set can be described thus: Septoria tritici / wheat / preventive (leaf spot). In kind it is in vivo. Particulars: Zymoseptoria tritici, spray, wheat plants cv. Riband, assessed 16-18 days after inoculation, read-out: inhibition of fungal infestation. The method, then:
Septoria Tritici/Wheat/Preventive (Action Against Septoria Leaf Spot on Wheat) 2 weeks old wheat plants cv. Riband are treated with the formulated test compound in a spray chamber. One day after application wheat plants are inoculated by spraying a spore suspension (10^6 conidia/ml) on the test plants. After an incubation period of 1 day at 22° C./21° C. and 95% r. h. plants are kept at 22° C./21° C. and 70% r.h. in a greenhouse. The disease incidence is assessed 16-18 days after inoculation.

Another data set concerns Uncinula Necator. The data set can be described thus: Uncinula necator / grape / preventive (powdery mildew). The data set is classed as in vivo. Particulars: Erysiphe necator, 168 h, spray, grape seedlings cv. Gutedel, assessed 7 days after inoculation, read-out: inhibition of fungal infestation. Here is the method:
Uncinula Necator/Drape/Preventive (Action Against Powdery Mildew on Grape) 5 weeks old grape seedlings cv. Gutedel are treated with the formulated test compound in a spray chamber. One day after application grape plants are inoculated by shaking plants infected with grape powdery mildew above the test plants. After an incubation period of 7 days at 24° C./22° C. and 70% r. h. under a light regime of 14/10 h (light/dark) the disease incidence is assessed.

Turning to `Cc1nnc(F)c(-c2c(F)cc(F)cc2F)c1-c1ccc(Cl)cc1` [I.c.127, 4-(4-chlorophenyl)-6-fluoro-3-methyl-5-(2,4,6-trifluorophenyl)-pyridazine], the inhibition at 200 ppm (in data set [1]; with Puccinia Recondita; in the data set on Alternaria Solani; in data set [2]; with Botrytis Cinerea; in the data set on Septoria Tritici) was ≥ 80% in each case. Further, in the data set on Uncinula Necator, the inhibition at 200 ppm is ≥ 80%.

Regarding `Cc1nnc(OCC(F)(F)F)c(-c2c(F)cc(F)cc2F)c1-c1ccc(Cl)cc1` [I.c.129, 4-(4-chlorophenyl)-3-methyl-6-(2,2,2-trifluoroethoxy)-5-(2,4,6-trifluorophenyl)-pyridazine], the melting point fell in the range of 105 to 108 °C. The inhibition at 200 ppm in the data set with Alternaria Solani is ≥ 80%. Moreover, in the data set with Septoria Tritici, the inhibition at 200 ppm is ≥ 80%. Further, in the data set on Uncinula Necator, the inhibition at 200 ppm is ≥ 80%.

(Values after US20100113457A1, “NOVEL PYRIDAZINE DERIVATIVES” (SYNGENTA CROP PROTECTION, INC., priority 2006, published 2010).)
